This is an account of results in US8361968B2 (Takeda Pharmaceutical Company Limited, priority 2002, dated 2013).

The nature of one data set: in vitro. The conditions noted are these: female, Balb/c, mouse, serum.
The subject of another data set is immature rat. The data set is described as follows: Induction of ovulation in immature rat using metastin derivatives. The data set is classed as in vivo, rats. The conditions noted are these: for number of oocytes in average per rat / dose to be administered for induction of ovulation equivalent to hCG: eCG-primed immature female rats; for dose to be administered for induction of ovulation equivalent to hCG: s.c. The procedure: Equine chorionic gonadotropin (eCG, serotropin, Dainippon Pharmaceutical Co., Ltd.) was dissolved in saline (Otsuka Pharmaceutical Co., Ltd.) in a concentration of 100 IU/mL. Using a 1 mL tuberculin syringe with a 26-gauge needle (both by Terumo Co., Ltd.), eCG was subcutaneously injected into the dorsal area of female Wistar rats of 23 days old after birth (Charles River Japan, Inc.) in a dose of 10 IU/animal, during 9:00 to 10:00 AM. As shown below, the animal was grouped 47 to 48 hours after the eCG injection and the drugs were given to these groups, respectively.
Group B (5 rats): Compound No. 305 was dissolved in saline at 33.3 nmol/mL and the solution was subcutaneously injected into the back in a dose of 6.7 nmol/animal.
Group C (5 rats): Compound No. 305 was dissolved in saline at 10.0 nmol/mL and the solution was subcutaneously injected into the back in a dose of 2.0 nmol/animal.
Group D (5 rats): Compound No. 322 was dissolved in saline at 33.3 nmol/mL and the solution was subcutaneously injected into the back in a dose of 6.7 nmol/animal.
Group E (5 rats): Compound No. 322 was dissolved in saline at 10.0 nmol/mL and the solution was subcutaneously injected into the back in a dose of 2.0 nmol/animal.
Group F (6 rats): Saline was subcutaneously injected into the back in a dose of 200 μL/animal.
After administration of these drugs, the animal was sacrificed by decapitation after 24 to 25 hours to recover blood, bilateral oviducts and uterus. In collecting the blood, 90 μL of 10 KIU/mL aprotinin solution (Trasylol, Bayer) containing 3 mg/ml EDTA had been previously filled in a tube for recovery to prevent blood clotting. After blood recovery, the blood was thoroughly blended and the mixture was centrifuged at 2,000 G for 25 minutes. The supernatant was recovered and used as a plasma sample.
The number of oocytes was counted by referring to the method described in Eur. J. Endocrinol., 138, 594-600 (1998). That is, where retained oocytes in the oviducal ampulla were confirmed by stereomicroscopic observation of the oviduct, the ampulla was punctured with a 27-gauge syringe needle (Terumo) to retrieve the oocytes. After granulosa cells surrounding the oocytes were removed by trypsin treatment, the number of oocytes was counted. Where the retained oocytes in the oviducal ampulla were not confirmed by stereomicroscopic observation of the oviduct, a 27-gauge syringe needle with the polished tip was inserted into the tubal ostium and more than 400 μL of saline was flushed into the oviduct and uterine for rinsing. Then, the presence or absence of oocytes in the effluent was observed.

The next data set relates to rats. The experiment in a line: Effect of metastin derivatives on blood glucose level and blood glucagon level. In kind it is in vivo. The conditions noted are these: for blood glucose level: i.v. 80 nmol/kg (FIG. 10); for blood glucagon level: i.v. 80 nmol/kg (FIG. 11). The source says:
The value indicates (mean±SE) (n=5). The symbol * designates that the P-value is 0.05 or less, when compared to the saline group and the symbol ** designates that the P-value is 0.01 or less, when compared to the saline group.
In the figure, the symbols, open circle, closed circle and closed triangledesignate the blood glucagon level in the saline group and the group receiving 80 nmol/kg KiSS1-305 (Compound No. 305), the group receiving 80 nmol/kg KiSS1-322 (Compound No. 322), respectively. The value indicates (mean±SE) (n=5). The symbol * designates that the P-value is 0.05 or less, when compared to the saline group.
An operation was performed in free moving mature Wistar male rats (weighing […] at the time of operation) in a manner similar to TEST EXAMPLE 1 to collect blood. After the operation, the animal was maintained overnight. […] To prevent blood clotting, 3 μl of 300 KIU/ml aprotinin solution containing 3 mg/ml EDTA had previously been filled in the syringe. […] Blood was collected from the jugular vein by 300 μl each 2, 5, 15, 30, 45 and 60 minutes starting from the intravenous injection. The collected blood was centrifuged (13,000 rpm, 5 minutes) with a high speed refrigerated centrifuge (MR-150, Tomy Seiko Co., Ltd.) to recover the supernatant (plasma). Glucose level in blood was measured using Fuji Drychem 3500 (FUJI FILM) and glucagon level in blood was measured using a glucagon kit “Daiichi” (Daiichi Radioisotope Laboratories Ltd.), as in TEST EXAMPLE 1 or 2.

Square brackets hold non-standard residues; d marks the D form. Peptide text beside a SMILES is read from it. * marks the point of attachment. Propanoyl(3-(3-pyridyl)) = O=C(CCc1cccnc1)*; Arg(Me) = CNC(=N)NCCC[C@H](N)C(=O)O; d4Pal = N[C@H](Cc1ccncc1)C(=O)O; azaGly = NNC(=O)O

Procedure for in vitro: Blood was drawn from Balb/c mice (female) of 8 weeks old, settled at 37° C. for 30 minutes and centrifuged at 13000 rpm for 10 minutes to give the serum as the supernatant. The serum thus obtained was frozen-stored at −80° C.
The stability test was performed by addition of 5 nmol of Compound (5 μL of aqueous solution) to 45 μL of serum and then settlement of the mixture at 37° C. The settlement was made at 3 points of time, including 2, 10 and 30 minutes. The sample after the settlement was boiled for 3 minutes and cooled on an ice bath. After 200 μL of acetonitrile/water (3/1) was added to the sample, the mixture was ultrasonicated for 5 minutes and then centrifuged at 5000 rpm for 1 minute. After 150 μL of the supernatant was diluted with 250 μL of distilled water, insoluble matters were removed by filtration through a filter having a pore size of 0.45 μm and 200 μL of the filtrate was applied on HPLC (220 nm) to determine the peak area of Compound. A ratio of the peak area to the area when Compound was treated for 0 minute under the same conditions was calculated as a mean value in 4 respective runs to determine the residual ratio. Next, by taking the calculated residual ratio on the ordinate and the time on the abscissa, a graph was prepared and approximated by an exponential function.
The preparative HPLC used was the LC-VP series manufactured by Shimadzu Corporation and Wakosil-II 5C18 HG (4.6 mm×100 mm) manufactured by Wako Pure Chemical Industries, Ltd. was used as the column. Eluant A (0.1% TFA-containing water) and eluant B (0.1% TFA-containing acetonitrile) were used as eluants. Analysis was performed by linear density gradient elution (25 minutes) at a flow rate of 1.0 ml/min. using eluants A/B: 100/0-0/50.

In the case of `CNC(=N)NCCC[C@H](NC(=O)[C@H](CC(C)C)NC(=O)NNC(=O)[C@H](Cc1ccccc1)NC(=O)[C@H](CO)NC(=O)[C@H](CC(N)=O)NC(=O)[C@@H](Cc1ccncc1)NC(=O)[C@H](N)Cc1ccc(O)cc1)C(=O)N[C@@H](Cc1ccccc1)C(N)=O` [Compound No. 305, D-Tyr-D-Pya(4)-Asn-Ser-Phe-AzaGly-Leu-Arg(Me)-Phe-NH2] (H-[dY][d4Pal]NSF[azaGly]L[Arg(Me)]F-NH2), the half-life at 100 µM in “in vitro” worked out at 1.11 h. For the same molecule, the “level of estradiol contained in plasma” value in the data set on immature rat (2.0 nmol/animal s.c. (FIG. 21)) and in the data set on immature rat (6.7 nmol/animal s.c. (FIG. 21)) was “no difference” throughout. Also, the “level of progesterone in blood” value in the data set with immature rat (2.0 nmol/animal s.c. (FIG. 22)) and in the data set on immature rat (6.7 nmol/animal s.c. (FIG. 22)) was “less than a half of the level in Group A” in each case. Also, the entries for the “number of oocytes in average per rat” value in the data set on immature rat (2.0 nmol/animal s.c.) and with immature rat (6.7 nmol/animal s.c.) were 29.4 oocytes and 32.6 oocytes, respectively. Besides, in the data set with immature rat, the “dose to be administered for induction of ovulation equivalent to hCG” value was “at least 2.0 nmol/animal”. The blood glucose level result in the data set with rats is reported as “increase in the blood glucose level”. Further, the blood glucagon level result in the data set on rats is “increase in the blood glucagon level”.

In the case of `CNC(=N)NCCC[C@H](NC(=O)[C@H](CC(C)C)NC(=O)NNC(=O)[C@H](Cc1ccccc1)NC(=O)[C@H](CO)NC(=O)[C@H](CC(N)=O)NC(=O)CCc1cccnc1)C(=O)N[C@@H](Cc1ccccc1)C(N)=O` [Compound No. 322, 3-Pyridylpropionyl-Asn-Ser-Phe-AzaGly-Leu-Arg(Me)-Phe-NH2] ({Propanoyl(3-(3-pyridyl))}-NSF[azaGly]L[Arg(Me)]F-NH2), in the data set “in vitro”, the half-life at 100 µM worked out at 1.57 h. For the same molecule, the rats ovulated with immature rat (2.0 nmol/animal s.c.) is reported as 3 out of 5. Further, the “level of estradiol contained in plasma” value is on record as “tendency to show a higher level in rats with no ovulation induction” in the data set with immature rat (2.0 nmol/animal s.c. (FIG. 21)) and “no difference” with immature rat (6.7 nmol/animal s.c. (FIG. 21)). Also, the “level of progesterone in blood” value is “very low level” in the data set with immature rat (2.0 nmol/animal s.c. (FIG. 22)) and “less than a half of the level in Group A” in the data set with immature rat (6.7 nmol/animal s.c. (FIG. 22)). For the same molecule, the “number of oocytes in average per rat” value in the data set with immature rat (2.0 nmol/animal s.c.) stood at 11.6 oocytes; in the data set on immature rat (6.7 nmol/animal s.c.), 29.6 oocytes. Further, the “dose to be administered for induction of ovulation equivalent to hCG” value in the data set with immature rat was “at least 6.7 nmol/animal”. Moreover, the blood glucose level entry in the data set on rats is “increase in the blood glucose level”. Moreover, in the data set on rats, the blood glucagon level entry is on record as “increase in the blood glucagon level”.
